{"source": "patent US4199515A", "about": "(priority 1978, dated 1980)", "origin": "cited, not measured here", "test_system": "gram-positive bacteria", "settings": "background statement", "data": [{"smiles": "CO[C@@H]1[C@H](C)[C@H]([C@]2(C)CC[C@H]([C@]3(C)CC[C@]4(C[C@H](OC)[C@@H](C)[C@@H]([C@@H](C)[C@H]5O[C@@](O)([C@H](C)C(=O)O)[C@H](C)[C@@H](OC)[C@H]5C)O4)O3)O2)O[C@H]1[C@H]1O[C@](C)(O)[C@H](C)[C@@H](OC)[C@@H]1C", "note": "[Lonomycin]", "values": [{"measurement": "activity to gram positive bacteria", "result": "activity to gram positive bacteria"}]}]}
